Legend:
Assay in all cases: Cell proliferation inhibition assay (ATP, CellTiter-Glo)
Type in all cases: cell-based
LNCaP cells = conditions: Homo sapiens, 120 h, 5 days, 4.5% FBS, read-out: Effect on cell killing (IC50)
Description: (§1) In this experiment, the content of ATP in the cells was detected, and the inhibitory effect of the PSMA ADC on the proliferation of cells (ATCC, LNCaP/CRL-1740, 22Rv1/CRL-2505 and PC-3/CRL-1435) was evaluated according to the IC50 values.
LNCaP cells were cultured in an RPMI-1640 medium containing 10% FBS, and passaged 2-3 times a week in a passage ratio of 1:3 or 1:6. During passaging, the medium was removed by pipetting, and the cell layer was rinsed with 5 mL of 0.25% pancreatin. Then the pancreatin was removed by pipetting, the cells were digested in an incubator for 3-5 min, and then a fresh medium was added to resuspend cells. To a 96-well culture plate were added 180 μL of cell suspension at a density of 2×10^3 cells/well and an RPMI-1640 medium containing 4.5% FBS, and to the periphery of the 96-well plate was only added the medium. The plate was incubated in an incubator for 24 h (37° C., 5% CO2).
Then 20 μL of the dilution was added to the above cell plate, and incubated in an incubator (37° C., 5% CO2) for 5 days. […] The chemiluminescence signal values were read on Victor3, and the data were processed using GraphPad software.

22Rv1 cells = conditions: Homo sapiens, 120 h; 22RV1, 5 days, 4.5% FBS; read-out: Effect on cell killing (IC50)
Description: as §1
(§2) Then 20 μL of the dilution was added to the above cell plate, and incubated in an incubator (37° C., 5% CO2) for 5 days. The compound 2-B (i.e., free toxin of 9-A) was diluted into a stock solution with DSMO, which was then prepared into an initial concentration of 200 μM with PBS, and diluted in a gradient dilution ratio of 1:6 with PBS to obtain 9 concentration points, and an additional 0 concentration point was set. Then 1 μL of the dilution was added to 20 μL of RPMI-1640, and the mixture was transferred to a 96-well culture plate, and incubated in an incubator (37° C., 5% CO2) for 5 days. In the 96-well culture plate, 80 μL of CellTiter-Glo reagent was added to each well, and the plate was incubated at room temperature for 10-15 min away from the light. The chemiluminescence signal values were read on Victor3, and the data were processed using GraphPad software.
22Rv1 cells were cultured in an RPMI-1640 medium containing 10% FBS, and passaged twice a week in a passage ratio of 1:3 or 1:6. During passaging, the medium was removed by pipetting, and the cell layer was rinsed with 5 mL of 0.25% pancreatin. […]

PC-3 cells = conditions: Homo sapiens, 120 h; PC-3, 5 days, 4.5% FBS; read-out: Effect on cell killing (IC50)
Description: as §1, §2
PC-3 cells were cultured in an F-12K medium containing 10% FBS, and passaged 2-3 times a week in a passage ratio of 1:3 or 1:6. During passaging, the medium was removed by pipetting, and the cell layer was rinsed with 5 mL of 0.25% pancreatin. […]

CC[C@@]1(O)C(=O)OCc2c1cc1n(c2=O)Cc2c-1nc1cc(F)c(C)c3c1c2[C@@H](NC(=O)[C@H](O)C1CC1)CC3 [Compound 2-B, (R)-2-cyclopropyl-N-((1S,9S)-9-ethyl-5-fluoro-9-hydroxy-4-methyl-10,13-dioxo-2,3,9,10,13,15-hexahydro-1H,12H-benzo[de]pyrano[3′,4′:6,7]indolizino[1,2-b]quinolin-1-yl)-2-hydroxyacetamide]
IC50 (LNCaP cells): 1.7 nM | IC50 (22Rv1 cells): 2.84 nM | IC50 (PC-3 cells): 8.33 nM

Source: US20230140397A1, “ANTI-PSMA ANTIBODY-EXATECAN ANALOGUE CONJUGATE AND MEDICAL USE THEREOF” (JIANGSU HENGRUI PHARMACEUTICALS CO., LTD., priority 2020, published 2023)
